System: IFN-γ-producing OVA323-339-specific CD4 T cells
Test: Vaccination with ZEBRA CPP truncation constructs plus TLR agonist adjuvant, IFN-γ Elispot on spleen cells, CD4
Format: in vivo, mice
Protocol: Mice were vaccinated three times (wk0, wk2 and wk9) by s.c. injection (right flank) of 10 nmoles of OVACD8CD4 (the cargo without Zebra CPP truncation), Z13OVACD8CD4, Z14OVACD8CD4, Z15OVACD8CD4, Z18OVACD8CD4 and i.m. injection of 50 μg of Hiltonol (right hind leg). One week after the last vaccination, Elispot assay was performed on spleen cells for detecting IFN-y-producing OVA257-264-specific CD8 T cells (A) and OVA323-339-specific CD4 T cells (B). *, p<0.05; **, p<0.01.
Mice were vaccinated three times (wk0, wk2 and wk9) by s.c. injection (right flank) of 10 nmoles of OVACD8CD4 (the cargo without Zebra CPP truncation), Z13OVACD8CD4, Z14OVACD8CD4, Z15OVACD8CD4 or Z18OVACD8CD4 and 20 μg of Pam3CSK4. One week after the last vaccination, Elispot assay was performed on spleen cells for detecting IFN-γ-producing OVA257-264-specific CD8 T cells (A) and OVA323-339-specific CD4 T cells (B). *, p<0.05; **, p<0.01.
Mice were vaccinated three times (wk0, wk2 and wk9) by s.c. injection (right flank) of 10 nmoles of Z13OVACD8CD4, Z15OVACD8CD4 or Z18OVACD8CD4 and 20 μg of MPLA. […]
Firstly, those constructs were tested with Hiltonol adjuvant (a TLR3 agonist). […] The number of peptide-specific IFN-γ-producing cells was calculated by subtracting the number of IFN-γ-secreting cells cultured without peptide to that obtained with cells cultured with peptide. […]

KRYKNRVASRKSRAKFKQLLQHYREVAAAKSSENDRLRLLLK [Z13]
CD4 immune response, combined with MPLA (10 nmol ZxxOVACD8CD4 s.c. wk0, wk2, wk9 and 20 μg MPLA (TLR4 agonist)): most efficacious

REVAAAKSSENDRLRLLLK [Z18]
CD4 immune response, combined with Pam3CSK4 (10 nmol ZxxOVACD8CD4 s.c. wk0, wk2, wk9 and 20 μg Pam3CSK4 (TLR2 agonist)): highest CD8 and CD4 immune response
